Measurements reported in BindingDB's records for doi:10.1021/jm00164a028 (Wyeth Research, 1990).

Molecular target: Thromboxane-A synthase (Oryctolagus cuniculus)
Experiment: Inhibition of Thromboxane A2 synthetase in rabbit platelets

Structure (SMILES): CCOC(=O)C1=C(COCCn2ccnc2)N=C(C)C(C(=O)OC)C1c1cccc([N+](=O)[O-])c1 (stereo not drawn)
- IC50: 115 µM

Structure (SMILES): CCOC(=O)C1=C(Cn2ccnc2)N=C(C)C(C(=O)OCC)C1c1cccc([N+](=O)[O-])c1 (stereo not drawn)
- IC50: 1.4 µM

Structure (SMILES): CCOC(=O)C1=C(Cn2ccnc2)N=C(C)C(C(=O)OC)C1c1ccccc1[N+](=O)[O-] (stereo not drawn)
- IC50: 3.2 µM

Structure (SMILES): CCOC(=O)C1=C(CCn2ccnc2)N=C(C)C(C(=O)OCC)C1c1cccc([N+](=O)[O-])c1 (stereo not drawn)
- IC50: 11 µM

Structure (SMILES): CCOC(=O)C1=C(Cn2ccnc2)N=C(C)C(C(=O)OC(C)(C)C)C1c1cccc([N+](=O)[O-])c1 (stereo not drawn)
- IC50: 23 µM

Structure (SMILES): CCOC(=O)C1=C(Cn2ccnc2)N=C(C)C(C(=O)OC(C)C)C1c1cccc([N+](=O)[O-])c1 (stereo not drawn)
- IC50: 2 µM

Structure (SMILES): CCOC(=O)C1=C(Cn2ccnc2)N=C(C)C(C(=O)OC)C1c1cccc(C(F)(F)F)c1Cl (stereo not drawn)
- IC50: 16 µM

Structure (SMILES): CCOC(=O)C1=C(Cn2ccnc2)N=C(C)C(C(=O)OC)C1c1cccc([N+](=O)[O-])c1 (stereo not drawn)
- IC50: 5 µM
